Laboratory results: patent publication US6368788B1 (priority 1987, dated 2002)
Marks after values point to notes of the source that are not given here.

Tests used:
[1] = system: peripheral blood leukocytes; experiment: Peripheral blood leukocytes in cortisone suppressed rats; type: in vivo; details: for Basophils (% of Normal Control Value) / Basophils: % / Basophils: Total Cells / Eosinophils (% of Normal Control Value) / Eosinophils: % / Eosinophils: Total Cells / Leukocytes (% of Normal Control Value) / Leukocytes: Total Cells / Lymphocytes (% of Normal Control Value) / Lymphocytes: % / Lymphocytes: Total Cells / Monocytes (% of Normal Control Value) / Monocytes: % / Monocytes: Total Cells / Segmented Neutrophils (% of Normal Control Value) / Segmented Neutrophils: % / Segmented Neutrophils: Total Cells / Stab Neutrophils (% of Normal Control Value) / Stab Neutrophils: % / Stab Neutrophils: Total Cells: cortisone suppressed rats, 10 μg/kg im
Description: An immunocompromised state was established over a period of 80 days in experimental rats by administration of cortisone acetate at a dosage of 25 mg/kg twice weekly with tetracycline hydrocholoride po in drinking water. In the experimental group, L-Glu-L-Trp was administered in three treatment courses, each course consisting of 10 daily im injections of 10 μg/kg or 100 μg/kg, and each course of treatment separated from the next course by a 1 month interval. In the control group, saline was administered in the same three treatment course schedule. Differential blood counts were conducted on day 0 (Normal Control), day 59, and day 79 of the study. […] Results obtained with the 10 μg/kg treatment dose (presented in TABLE 73) were not markedly different than those obtained with the 100 μg/kg dose.

[2] = Pleuritis / suppurative lung diseases, combined antibiotic therapy (Protocol K); type: in vivo, human
Description: Efficacy of L-Glu-L-Trp in combined antibiotic therapy was evaluated in twelve male patients (aged 18 to 45) with suppurative lung diseases that were poorly responsive to antibiotic therapy and accompanied by diffuse pleuritis, disseminated intravascular coagulation (DIC), pleural effusions, and fever. […] L-Glu-L-Trp was administered to these patients as a treatment of nearly last resort, and as part of the ongoing (unsuccessful) regimen of broad spectrum antibiotic therapy: i.e., 200 μg of L-Glu-L-Trp was administered im daily over a period of 5-7 days. […] In addition, T-cell counts in peripheral blood increased and IgG, IgM, and IgA increased (TABLE 17) and C-reactive protein levels fell (TABLE 16).

[3] = system: peripheral blood lymphocytes; experiment: Breast cancer patients after radiotherapy treated with L-Glu-L-Trp 100 μg im daily; type: in vivo, human
Description: Thirty six patients with breast cancer were treated with conventional radiation therapy (i.e., single doses of about 2-3 Gy daily for 10 days; total cumulative patient dose of 20-30 Gy). Following radiotherapy the patients were treated with L-Glu-L-Trp by injection of daily dosages im of 100 μg. The patients had been previously treated with radiation therapy (single doses 2 Gy; total dose 20-30 Gy).

E. coli = experiment: Survival after acute peritonitis with LD100 dose of E. coli; type: in vivo, mice
[4] = Bronchial asthma (Protocol A); type: in vivo, human
Description: Sixty five patients (65) with bronchial asthma, including both adults and children, were entered into the trial: 37 patients were treated with L-Glu-L-Trp and 28 (controls) received conventional therapy alone. L-Glu-L-Trp was administered im in a single daily dose of 1 μg/kg on each of 5-10 consecutive days. […] In certain patients it was possible to eliminate the use of prescribed steroids.

Adult thymectomy = experiment: Adult thymectomy; parameters: species or system human; details: in vivo
Description: A total of 12 thymectomized patients were treated with L-Glu-L-Trp. Prior to therapy, these individuals had experienced frequent serious infections including upper respiratory infections. L-Glu-L-Trp was administered in a single dose of 100 μg daily for 10 days and repeated every 4-6 months.

## L-Glu-L-Trp
[1]; 10 μg/kg and 100 μg/kg
  Peripheral blood cells vs saline treated controls: increased the number of leukocytes, monocytes, and lymphocytes in the peripheral blood of cortisone-suppressed rats
[1]; Day 59
  Basophils (% of Normal Control Value): (71%)
  Basophils: %: 0.4 ± 0.2%
  Basophils: Total Cells: 0.05 ± 0.03 × 10^3/mg
  Eosinophils (% of Normal Control Value): (150%)
  Eosinophils: %: 4.3 ± 0.4 %
  Eosinophils: Total Cells: 0.6 ± 0.1 × 10^9/L
  Leukocytes (% of Normal Control Value): (75%)
  Leukocytes: Total Cells: 12.4 ± 1.8 × 10^9/L
  Lymphocytes (% of Normal Control Value): (11%)
  Lymphocytes: %: 57 ± 1.5 %
  Lymphocytes: Total Cells: 7 ± 1 × 10^9/L
  Monocytes (% of Normal Control Value): (128%)
  Monocytes: %: 7 ± 0.9 %
  Monocytes: Total Cells: 0.92 ± 0.2 × 10^9/L
  Segmented Neutrophils (% of Normal Control Value): (73%)
  Segmented Neutrophils: %: 26.7 ± 1 %
  Segmented Neutrophils: Total Cells: 3.3 ± 0.4 × 10^9/L
  Stab Neutrophils (% of Normal Control Value): (100%)
  Stab Neutrophils: %: 4.7 ± 0.6%
  Stab Neutrophils: Total Cells: 0.6 ± 0.1 × 10^9/L
[1]; Day 79
  Basophils (% of Normal Control Value): (29%)
  Basophils: %: 0.3 ± 0.2%
  Basophils: Total Cells: 0.02 ± 0.02 × 10^3/mg
  Eosinophils (% of Normal Control Value): (75%)
  Eosinophils: %: 4 ± 0.9%
  Eosinophils: Total Cells: 0.3 ± 0.1 × 10^9/L
  Leukocytes (% of Normal Control Value): (49%)
  Leukocytes: Total Cells: 8.06 ± 0.9 × 10^9/L
  Lymphocytes (% of Normal Control Value): (7.7%)
  Lymphocytes: %: 59 ± 2 %
  Lymphocytes: Total Cells: 4.7 ± 1 × 10^9/L
  Monocytes (% of Normal Control Value): (100%)
  Monocytes: %: 8 ± 0.8 %
  Monocytes: Total Cells: 0.7 ± 0.1 × 10^9/L
  Segmented Neutrophils (% of Normal Control Value): (44%)
  Segmented Neutrophils: %: 24.6 ± 1.3 %
  Segmented Neutrophils: Total Cells: 2 ± 2 × 10^9/L
  Stab Neutrophils (% of Normal Control Value): (58%)
  Stab Neutrophils: %: 4.4 ± 0.7 %
  Stab Neutrophils: Total Cells: 0.35 ± 0.1 × 10^9/L
[2]; 200 μg im daily 5-7 days
  Clinical outcome: A dramatic change in the clinical picture was observed in all 12 patients
[2]; After L-Glu-L-Trp Therapy
  ATIII: 98.3 ± 15.3 % of normal
  Clotting time (citrated whole blood-recalcified): 146.5 ± 28.2
  FDP: 21.7 ± 0.8 µg/mL
  Fibrinogen Concentration: 4.7 ± 1.2 g/L
  Fibrinolytic Activity: 181.2 ± 52.2 min
  Kaolin-Cephalin clotting time: 61.7 ± 6.1
[3]
  B-lymphocyte (Ig+): 0.17 ± 0.02 ×10^9/L
  B-lymphocyte (Ig+), Ratio Post-Rad/Pre-Rad Value: (1.1)
  B-lymphocyte (Ig+), Ratio Post-Treat/Pre-Treat Value: (1.55)
  C3-complement: 0.68 ± 0.04 g/L
  DTH to tuberculin: 8.7 ± 0.6 mm
  DTH to tuberculin, Ratio Post-Rad/Pre-Rad Value: (1.2)
  Granulocyte Cation Proteins: 1.49 ± 0.12
  Granulocyte Phagocytic Index: 3.7 ± 0.2
  LMI with ConA: 71 ± 5 %
  Lymphocytes: 1.72 ± 0.21 ×10^9/L
  Lymphocytes, Ratio Post-Rad/Pre-Rad Value: (1.1)
  Lymphocytes, Ratio Post-Treat/Pre-Treat Value: (2.18)
  OKT4+/OKT8+: 1.86 ± 0.17
  T-Lymphocytes: 0.92 ± 0.12 ×10^9/L
  T-helpers (OKT4+): 0.39 ± 0.04 ×10^9/L
  T-helpers (OKT4+), Ratio Post-Rad/Pre-Rad Value: (1.3)
  T-helpers (OKT4+), Ratio Post-Treat/Pre-Treat Value: (3.25)
  T-lymphocytes, Ratio Post-Rad/Pre-Rad Value: (1.1)
  T-lymphocytes, Ratio Post-Treat/Pre-Treat Value: (2.88)
  T-suppressors (OKT8+): 0.21 ± 0.03 ×10^9/L
  T-suppressors (OKT8+), Ratio Post-Rad/Pre-Rad Value: (0.8)
  T-suppressors (OKT8+), Ratio Post-Treat/Pre-Treat Value: (1.31)
  “Active” T-lymphocytes: 0.52 ± 0.07 ×10^9/L
  “Active” T-lymphocytes, Ratio Post-Rad/Pre-Rad Value: (1.1)
  “Active” T-lymphocytes, Ratio Post-Treat/Pre-Treat Value: (2.74)
E. coli; 24 hours after injection, Glu-Trp dose 10 μg/kg (alone or + Ampicillin 1 MED)
  Percentage Survivors: 83.3* %
E. coli; 24 hours after injection, Glu-Trp dose 100 μg/kg (alone or + Ampicillin 1 MED)
  Percentage Survivors: 77.8*† %
E. coli; 24 hours after injection, Glu-Trp dose 1000 μg/kg (alone or + Ampicillin 1 MED)
  Percentage Survivors: 83.3*† %
E. coli; 48 hours after injection, Glu-Trp dose 10 μg/kg (alone or + Ampicillin 1 MED)
  Percentage Survivors: 11.1%
E. coli; 48 hours after injection, Glu-Trp dose 100 μg/kg (alone or + Ampicillin 1 MED)
  Percentage Survivors: 38.9* %
E. coli; 48 hours after injection, Glu-Trp dose 1000 μg/kg (alone or + Ampicillin 1 MED)
  Percentage Survivors: 44.4* %
E. coli; 72 hours after injection, Glu-Trp dose 10 μg/kg (alone or + Ampicillin 1 MED)
  Percentage Survivors: 11.1%
E. coli; 72 hours after injection, Glu-Trp dose 100 μg/kg (alone or + Ampicillin 1 MED)
  Percentage Survivors: 38.9* %
E. coli; 72 hours after injection, Glu-Trp dose 1000 μg/kg (alone or + Ampicillin 1 MED)
  Percentage Survivors: 44.4* %
[4]; in vivo
  Patients with disappearance of symptoms of food and drug allergies: more than half
[4]; year long follow-up
  Decrease in the incidence of bronchial asthmatic attacks: 4.2 fold
Adult thymectomy
  Clinical outcome: reduction of infectious disorders
